Data on 24 molecules can be found in US11174251B2, “Compositions and methods for inhibition of the JAK pathway” (Rigel Pharmaceuticals, Inc., priority 2010, dated 2021).

Where a name gives a salt, the structure may show the parent alone. A value given as a limit tells only on which side of the number the result lay.

As a reminder, the IC50 is the concentration that inhibits the measured activity by half. A lower IC50 goes with greater potency in that assay.

This assay has as its target T1, JAK3 (Homo sapiens, UniProt P52333).
T1 construct: The Ramos B-cell line was acquired from ATCC (ATCC Catalog No. CRL-1596); host or cells: Ramos B-cell line (human)
T1 sequence (P52333 1-1124): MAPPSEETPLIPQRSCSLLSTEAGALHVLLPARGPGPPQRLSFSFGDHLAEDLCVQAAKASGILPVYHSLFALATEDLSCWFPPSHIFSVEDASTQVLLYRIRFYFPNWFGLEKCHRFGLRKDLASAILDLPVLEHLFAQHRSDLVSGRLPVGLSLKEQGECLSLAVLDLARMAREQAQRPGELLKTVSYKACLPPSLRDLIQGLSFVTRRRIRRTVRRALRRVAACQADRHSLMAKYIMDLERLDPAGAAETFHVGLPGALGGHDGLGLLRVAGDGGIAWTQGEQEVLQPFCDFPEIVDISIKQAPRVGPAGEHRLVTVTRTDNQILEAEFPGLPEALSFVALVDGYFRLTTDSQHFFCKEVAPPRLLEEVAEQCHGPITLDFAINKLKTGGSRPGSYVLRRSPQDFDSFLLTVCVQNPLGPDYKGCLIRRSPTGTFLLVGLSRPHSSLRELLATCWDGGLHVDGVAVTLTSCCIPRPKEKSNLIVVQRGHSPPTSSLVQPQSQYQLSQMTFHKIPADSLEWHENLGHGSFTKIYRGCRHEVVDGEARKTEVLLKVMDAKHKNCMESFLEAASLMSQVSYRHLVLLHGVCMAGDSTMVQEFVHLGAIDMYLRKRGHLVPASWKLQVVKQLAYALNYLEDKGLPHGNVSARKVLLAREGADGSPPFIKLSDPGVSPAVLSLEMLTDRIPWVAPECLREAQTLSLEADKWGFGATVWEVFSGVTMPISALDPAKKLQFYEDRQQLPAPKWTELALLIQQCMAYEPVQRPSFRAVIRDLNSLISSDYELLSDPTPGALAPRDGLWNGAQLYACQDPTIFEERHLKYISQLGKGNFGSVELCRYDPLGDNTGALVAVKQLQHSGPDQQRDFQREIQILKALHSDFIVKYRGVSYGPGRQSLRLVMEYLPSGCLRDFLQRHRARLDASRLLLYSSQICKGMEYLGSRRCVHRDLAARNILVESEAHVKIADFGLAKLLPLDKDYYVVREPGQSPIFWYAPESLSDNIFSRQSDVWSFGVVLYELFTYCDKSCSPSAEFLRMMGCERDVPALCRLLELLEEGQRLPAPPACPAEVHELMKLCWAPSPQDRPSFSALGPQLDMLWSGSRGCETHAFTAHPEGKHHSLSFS
The assay is described as follows: Assay for CD23 expression on Ramos B-cells stimulated by IL-4 (Table IV: ability to inhibit JAK3 activity). It counts as cell-based. The following applies: tested under conditions described in Example 3 (so in the source). From the text: One means of assaying for such inhibition is detection of the effect of the 2,4-pyrimidinediamine compounds on the upregulation of downstream gene products. In the Ramos/IL4 assay, B-cells are stimulated with the cytokine Interleukin-4 (IL-4) leading to the activation of the JAK/Stat pathway through phosphorylation of the JAK family kinases, JAK1 and JAK3, which in turn phosphorylate and activate the transcription factor Stat-6. […] To study the effect of inhibitors (for example, the 2,4-substituted pyrimindinediamine compounds described herein) on the JAK1 and JAK3 kinases, human Ramos B cells are stimulated with human IL-4. 20 to 24 hours post stimulation, cells are stained for upregulation of CD23 and analyzed using FACS.
B-cells stimulated with cytokine Interleukin-4 (IL-4) activate the JAK/Stat pathway through phosphorylation of the JAK family kinases, JAK-1 and JAK-3, which in turn phosphorylate and activate the transcription factor Stat-6. […] To study the effect of inhibitors on the JAK family kinases, human Ramos B cells were stimulated with human IL-4 and the surface expression of CD23 was measured.
The day before the experiment, Ramos B-cells were diluted to 3.5×10^5 cells/mL to ensure that they were in a logarithmic growth phase.
Cells were spun down and suspended in RPMI with 5% serum. 5×10^4 cells were used per point in a 96-well tissue culture plate. Cells were pre-incubated with compound or DMSO (Sigma-Aldrich, St. Louis, Mo., Cat No. D2650) vehicle control for 1 hour in a 37° C. incubator. Cells were then stimulated with IL-4 (Peprotech Inc., Rocky Hill, N.J., Cat No. 200-04) for a final concentration of 50 units/mL for 20-24 hours. […] Detection was performed using a BD LSR I System Flow Cytometer, purchased from Becton Dickinson Biosciences of San Jose, Calif.
The compound designations in Table IV are consistent with those of Tables I-II above.
Regarding `Cc1ccc(Nc2ncc(F)c(Nc3ccc4oc(=O)[nH]c4c3)n2)cc1C#N` [Compound I-1, 5-(5-fluoro-4-(2-oxo-2,3-dihydrobenzo[d]oxazol-5-ylamino)pyrimidin-2-ylamino)-2-methylbenzonitrile formate salt], the IC50 is below 0.5 µM. As to `NC(=O)c1ccc(Nc2nccc(Nc3ccc4oc(=O)[nH]c4c3)n2)cc1` [Compound I-2, 4-(4-(2-oxo-2,3-dihydrobenzo[d]oxazol-5-ylamino)pyrimidin-2-ylamino)benzamide trifluoroacetate salt], the IC50 was below 0.5 µM. In the case of `NC(=O)c1cccc(Nc2nccc(Nc3ccc4oc(=O)[nH]c4c3)n2)c1` [Compound I-3, 3-(4-(2-oxo-2,3-dihydrobenzo[d]oxazol-5-ylamino)pyrimidin-2-ylamino)benzamide trifluoroacetate salt] it was 0.5 to 5 µM; in that of `O=c1[nH]c2cc(Nc3nc(Nc4ccccc4)ncc3Cl)ccc2o1` [Compound I-4, 5-(5-chloro-2-(phenylamino)pyrimidin-4-ylamino)benzo[d]oxazol-2(3H)-one trifluoroacetate salt], below 0.5 µM; in that of `Cc1ccc(Nc2ncc(Cl)c(Nc3ccc4oc(=O)[nH]c4c3)n2)cc1C` [Compound I-5, 5-(5-chloro-2-(3,4-dimethylphenylamino)pyrimidin-4-ylamino)benzo[d]oxazol-2(3H)-one trifluoroacetate salt], below 0.5 µM.

As to `Cc1cc(Nc2ncc(Cl)c(Nc3ccc4oc(=O)[nH]c4c3)n2)cc(C)c1C` [Compound I-6, 5-(5-chloro-2-(3,4,5-trimethylphenylamino)pyrimidin-4-ylamino)benzo[d]oxazol-2(3H)-one trifluoroacetate salt], the IC50 was above 10 µM. In the case of `COc1c(F)ccc(Nc2ncc(Cl)c(Nc3ccc4oc(=O)[nH]c4c3)n2)c1F` [Compound I-7, 5-(5-chloro-2-(2,4-difluoro-3-methoxyphenylamino)pyrimidin-4-ylamino)benzo[d]oxazol-2(3H)-one trifluoroacetate salt] it was below 0.5 µM; in that of `O=c1[nH]c2cc(Nc3nc(Nc4cc(F)cc(Cl)c4)ncc3Cl)ccc2o1` [Compound I-8, 5-(5-chloro-2-(3-chloro-5-fluorophenylamino)pyrimidin-4-ylamino)benzo[d]oxazol-2(3H)-one formate salt], below 0.5 µM; in that of `Cc1ccc(Nc2ncc(Cl)c(Nc3ccc4oc(=O)[nH]c4c3)n2)cc1C(F)(F)F` [Compound I-9, 5-(5-chloro-2-(4-methyl-3-(trifluoromethyl)phenylamino)pyrimidin-4-ylamino)benzo[d]oxazol-2(3H)-one], below 0.5 µM. Next, `Cc1cc(C)cc(Nc2ncc(Cl)c(Nc3ccc4oc(=O)[nH]c4c3)n2)c1` [Compound I-10, 5-(5-chloro-2-(3,5-dimethylphenylamino)pyrimidin-4-ylamino)benzo[d]oxazol-2(3H)-one trifluoroacetate salt]: below 0.5 µM. In the case of `NC(=O)c1ccc(Nc2ncc(Cl)c(Nc3ccc4oc(=O)[nH]c4c3)n2)cc1` [Compound I-11, 4-(5-chloro-4-(2-oxo-2,3-dihydrobenzo[d]oxazol-5-ylamino)pyrimidin-2-ylamino)benzamide trifluoroacetate salt] it was below 0.5 µM. As to `COc1cc(Nc2ncc(Cl)c(Nc3ccc4oc(=O)[nH]c4c3)n2)cc(C(F)(F)F)c1` [Compound I-12, 5-(5-chloro-2-(3-methoxy-5-(trifluoromethyl)phenylamino)pyrimidin-4-ylamino)benzo[d]oxazol-2(3H)-one], the IC50 is below 0.5 µM. Next, `O=c1[nH]c2cc(Nc3ccnc(Nc4cc(F)cc(F)c4)n3)ccc2o1` [Compound I-13, 5-(2-(3,5-difluorophenylamino)pyrimidin-4-ylamino)benzo[d]oxazol-2(3H)-one trifluoroacetate salt]: 0.5 to 5 µM; `O=c1[nH]c2cc(Nc3nc(Nc4cc(F)cc(F)c4)ncc3Cl)ccc2o1` [Compound I-14, 5-(5-chloro-2-(3,5-difluorophenylamino)pyrimidin-4-ylamino)benzo[d]oxazol-2(3H)-one trifluoroacetate salt]: below 0.5 µM; `O=c1[nH]c2cc(Nc3nc(Nc4ccc(C(F)(F)F)cc4)ncc3Cl)ccc2o1` [Compound I-15, 5-(5-chloro-2-(4-(trifluoromethyl)phenylamino)pyrimidin-4-ylamino)benzo[d]oxazol-2(3H)-one trifluoroacetate salt]: below 0.5 µM.

Molecule `Cc1cc(Nc2ncc(Br)c(Nc3ccc4oc(=O)[nH]c4c3)n2)cc(C)c1C` [Compound I-16, 5-(5-bromo-2-(3,4,5-trimethylphenylamino)pyrimidin-4-ylamino)benzo[d]oxazol-2(3H)-one formate salt] came in with an IC50 below 0.5 µM. As to `Cc1ccc(Nc2ncc(C)c(Nc3ccc4oc(=O)[nH]c4c3)n2)cc1N(C)C` [Compound I-17, 5-[2-(3-Dimethylamino-4-methyl-phenylamino)-5-methyl-pyrimidin-4-ylamino]-3H-benzooxazol-2-one], the IC50 was below 0.5 µM.

Turning to `C#Cc1cnc(Nc2cc(C)c(C)c(C)c2)nc1Nc1ccc2oc(=O)[nH]c2c1` [Compound I-18, 5-[5-Ethynyl-2-(3,4,5-trimethyl-phenylamino)-pyrimidin-4-ylamino]-3H-benzooxazol-2-one trifluoroacetate salt], the IC50 is below 0.5 µM.

Regarding `COc1cccc(Nc2ncc(C)c(Nc3ccc4oc(=O)[nH]c4c3)n2)c1F` [Compound I-19, 5-[2-(2-Fluoro-3-methoxy-phenylamino)-5-methyl-pyrimidin-4-ylamino]-3H-benzooxazol-2-one], the IC50 was below 0.5 µM. Next, `COc1cccc(Nc2ncc(F)c(Nc3ccc4oc(=O)[nH]c4c3)n2)c1F` [Compound I-20, 5-(5-fluoro-2-(2-fluoro-3-methoxyphenylamino)pyrimidin-4-ylamino)benzo[d]oxazol-2(3H)-one trifluoroacetate salt]: 0.5 to 5 µM; `COc1cccc(Nc2ncc(Cl)c(Nc3ccc4oc(=O)[nH]c4c3)n2)c1F` [Compound I-21, 5-(5-chloro-2-(2-fluoro-3-methoxyphenylamino)pyrimidin-4-ylamino)benzo[d]oxazol-2(3H)-one trifluoroacetate salt]: below 0.5 µM; `COc1cccc(Nc2ncc(Br)c(Nc3ccc4oc(=O)[nH]c4c3)n2)c1F` [Compound I-22, 5-(5-bromo-2-(2-fluoro-3-methoxyphenylamino)pyrimidin-4-ylamino)benzo[d]oxazol-2(3H)-one trifluoroacetate salt]: below 0.5 µM. In the case of `COc1cccc(Nc2nccc(Nc3ccc4oc(=O)[nH]c4c3)n2)c1F` [Compound I-23, 5-(2-(2-fluoro-3-methoxyphenylamino)pyrimidin-4-ylamino)benzo[d]oxazol-2(3H)-one] it was 0.5 to 5 µM.

The molecule `Cc1cnc(Nc2cccc(N(C)C)c2)nc1Nc1ccc2oc(=O)[nH]c2c1` [Compound I-24, 5-[2-(3-Dimethylamino-phenylamino)-5-methyl-pyrimidin-4-ylamino]-3H-benzooxazol-2-one trifluoroacetate salt] showed an IC50 below 0.5 µM.
